Measured values published in US20090011950A1, “METHOD FOR DETECTING ORAL SQUAMOUS-CELL CARCINOMA AND METHOD FOR SUPPRESSING THE SAME” (priority 2007, published 2009).

Experiments:
[1] = test system: PRTFDC1 gene expression in oral squamous-cell carcinoma cell lines not expressing the PRTFDC1 gene; experiment: RT-PCR of PRTFDC1 gene expression after treatment with demethylating reagent or deacetylation inhibitory agent; format: cell-based; conditions: oral squamous-cell carcinoma cells (NA, HSC-2, ZA)
Protocol: (d) Oral squamous-cell carcinoma cells (NA, HSC-2, and ZA) were treated (+) or not treated (−) with 5-aza-dCyd ([…]) for 5 days or with TSA ([…]) for 24 hours. The results of RT-PCR analysis on the PRTFDC1 gene in the oral squamous-cell carcinoma cells are shown.
To examine the expression levels of the 6 above genes (the PRTFDC1 gene, the e10orf6 gene, the THNSL1 gene, the GPR158 gene, the MYO3A gene, and the GAD2 gene), 18 types of oral squamous-cell carcinoma cell line and normal oral epithelium cells were subjected to reverse transcriptase (RT)-PCR. Specifically, a single-chain cDNA was synthesized from the RNA extracted from each cultured cell line using the SuperScript First-Strand Synthesis System (Invitrogen). PCR was then performed using primer sequences listed in Table 4 (supplementary Table 1). Moreover, a glyceraldehyde-3-phosphate dehydrogenase (GAPDH) gene was used as a control. As a result, complete disappearance of PRTFDC1 mRNA expression could be confirmed in 8 cell lines in which homozygous deletion of chromosomal region 10p12 should not have taken place, as in the case of HSC-6 cells (FIG. 2c). […] Such disappearance of PRTFDC1 mRNA expression in the oral squamous-cell carcinoma cell lines may be due to a mechanism other than genomic deletion, such as an epigenetic phenomenon.
To examine if the suppressed expression of the PRTFDC1 gene was due to DNA methylation, oral squamous-cell carcinoma cell lines not expressing the PRTFDC1 gene were treated using a 1 μM or 5 μM demethylating reagent 5—aza—dCyd for 5 days and/or using deacetylation inhibitory agent TSA (100 ng/ml) for 24 hours. RNAs were extracted from these cells and then PRTFDC1 gene expression was examined by RT-PCR (FIG. 2d).

[2] = test system: CpG islands of the PRTFDC1 gene; experiment: Demethylation of CpG islands by culturing oral squamous-cell carcinoma cells with demethylating reagent; format: cell-based; conditions: oral squamous-cell carcinoma cells cultured in the presence of the reagent

Compound | PRTFDC1 gene expression (RT-PCR) ([1]; TSA 100 ng/ml for 24 hours) | PRTFDC1 gene expression (RT-PCR) ([1]; 5-aza-dCyd 1 μM or 5 μM for 5 days) | PRTFDC1 gene expression (RT-PCR) ([1]; 5-aza-dCyd 1 μM or 5 μM for 5 days, listed as 5-azadeoxycytidine) | demethylation of CpG islands [2]
CC(/C=C/C(=O)NO)=C\[C@@H](C)C(=O)c1ccc(N(C)C)cc1 [TSA] | no differences |  |  | 
Nc1ncn([C@H]2C[C@H](O)[C@@H](CO)O2)c(=O)n1 [5-aza-dCyd, 5-azadeoxycytidine] |  | recovers its gene expression | possible to recover the expression level | possible to demethylate
